Among the data in patent publication US7223759B2, “Antibacterial 3,5-diaminopiperidine-substituted aromatic and heteroaromatic compounds” (Anadys Pharmaceuticals, Inc., priority 2003, dated 2007) are MIC values, retold here.

A value given as a limit tells only on which side of the number the result lay.

In general, MIC refers to the lowest concentration found to suppress growth.

One test deals with Escherichia coli (ATCC25922) or Staphylococcus aureus (ATCC25923). As to the kind of experiment: Antibacterial MIC, microdilution method in Mueller-Hinton medium. In kind it is cell-based. As to conditions: Escherichia coli, 18 h, MIC in E. coli or S. aureus; two-fold serial dilutions 64 to 0.5 μg/ml in duplicate; 18 hours of incubation at 35° C.; read-out: Potency (MIC). The method, boiled down:
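Two-fold serial dilutions from 64 to 0.5 μg/ml, in duplicate, by broth microdilution in Mueller-Hinton medium (NCCLS M7-A5). MIC taken as the lowest concentration preventing visible growth after 18 h at 35° C.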
(Dilution methods test growth across graded concentrations, often in twofold steps.)
As for `N[C@@H]1C[C@H](N)CN(c2nc(Nc3ccc(C(=O)CC(=O)Nc4ccccc4Cl)cc3)nc(N3C[C@H](N)C[C@H](N)C3)n2)C1` [N-{4-[2-(2-chloro-phenylcarbamoyl)-acetyl]-phenyl}-4,6-Bis-((3R,5S)-3,5-diamino-piperidin-1-yl)-[1,3,5]triazine-2-amine], the minimum inhibitory concentration (MIC) is under 16 µg/mL.
Consider `Cl.N[C@@H]1CC(c2nc(Nc3ccc(C(=O)CC(=O)Nc4ccccc4N4CCOCC4)cc3)nc(N3C[C@H](N)C[C@H](N)C3)n2)C[C@H](N)C1` (stereo partly drawn) [N-{4-[2-(2-morpholin-4-yl-phenylcarbamoyl)-acetyl]-phenytl}-4,6-Bis-((3R,5S)-3,5-diamino-piperidin-1-yl)-[1,3,5]triazine-2-ammine], for which the minimum inhibitory concentration (MIC) is under 16 µg/mL.
For the compound `COc1cc(NC(=O)CC(=O)c2ccc(Nc3nc(N4C[C@H](N)C[C@H](N)C4)nc(N4C[C@H](N)C[C@H](N)C4)n3)cc2)cc(OC)c1OC` [N-{4-[2-(3,4,5-trimethoxy-phenylcarbamoyl)-acetyl]-phenyl}-4,6-Bis-((3R,5S)-3,5-diamino-piperidin-1-yl)-[1,3,5]triazine-2-amine], the MIC was over 64 µg/mL.
The same measure, in the same setting: with `Cl.O=C(CC(=O)c1ccc(Nc2nc(N3CCCCC3)nc(N3CCCCC3)n2)cc1)Nc1cccc(Br)c1` [N-{4-[2-(3-bromo-phenylcarbamoyl)-acetyl]-phenyl}-4,6-Biss-((3R,5S)-3,5-diamino-piperidin-1-yl)-[1,3,5]triazine-2-amine] the figure was under 16 µg/mL.

The test is the same for the next values; noted with them: Escherichia coli, 18 h, read-out: Potency (MIC).
Regarding `COc1ccc(OC)c(NC(=O)CC(=O)c2ccc(Nc3nc(N4C[C@H](N)C[C@H](N)C4)nc(N4C[C@H](N)C[C@H](N)C4)n3)cc2)c1` [N-{4-[2-(2,5-dimethoxy-phenylcarbamoyl)-acetyl]-phenyl}-4,6-Bis-((3R,5S)-3,5-diamino-piperidin-1-yl)-[1,3,5]triazine-2-amine], the MIC was under 64 µg/mL.
Same read-out and setting: for `N[C@@H]1C[C@H](N)CN(c2nc(Nc3ccc(C(=O)CC(=O)Nc4cc(C(F)(F)F)ccc4Cl)cc3)nc(N3C[C@H](N)C[C@H](N)C3)n2)C1` [N-{4-[2-(2-chloro-5-trifluoromethyl-phenylcarbamoyl)-acetyl]-phenyl}-4,6-Bis-((3R,5S)-3,5-diamino-piperidin-1-yl)-[1,3,5]triazine-2-amine] the value was under 16 µg/mL; for `N[C@@H]1C[C@H](N)CN(c2nc(Nc3ccc(C(=O)CC(=O)Nc4ccccc4F)cc3)nc(N3C[C@H](N)C[C@H](N)C3)n2)C1` [N-{4-[2-(2-fluoro-phenylcarbamoyl)-acetyl]-phenyl}-4,6-Bis-((3R,5S)-3,5-diamino-piperidin-1-yl)-[1,3,5]triazine-2-amine], under 64 µg/mL; for `N[C@@H]1C[C@H](N)CN(c2nc(Nc3ccc(C(=O)CC(=O)Nc4ccccc4C(F)(F)F)cc3)nc(N3C[C@H](N)C[C@H](N)C3)n2)C1` [N-{4-[2-(2-trifluoromethyl-phenylcarbamoyl)-acetyl]-phenyl}-4,6-Bis-((3R,5S)-3,5-diamino-piperidin-1-yl)-[1,3,5]triazine-2-amine], under 64 µg/mL.
Turning to `N[C@@H]1C[C@H](N)CN(c2nc(Nc3ccc(C(=O)CC(=O)Nc4ccc(F)c(F)c4)cc3)nc(N3C[C@H](N)C[C@H](N)C3)n2)C1` [N-{4-[2-(3,4-difluoro-phenylcarbamoyl)-acetyl]-phenyl}-4,6-Bis-((3R,5S)-3,5-diamino-piperidin-1-yl)-[1,3,5]triazine-2-amine], the minimum inhibitory concentration (MIC) is under 16 µg/mL.
Same read-out and setting: for `Nc1cccc(NC(=O)CC(=O)c2ccc(Nc3nc(N4C[C@H](N)C[C@H](N)C4)nc(N4C[C@H](N)C[C@H](N)C4)n3)cc2)c1` [N-{4-[2-(3-amino-phenylcarbamoyl)-acetyl]-phenyl}-4,6-Bis-((3R,5S)-3,5-diamino-piperidin-1-yl)-[1,3,5]triazine-2-amine] the value was over 64 µg/mL.
With `N[C@@H]1C[C@H](N)CN(c2nc(Nc3ccc(C(=O)CC(=O)Nc4ccc(F)c(Cl)c4)cc3)nc(N3C[C@H](N)C[C@H](N)C3)n2)C1` [N-{4-[2-(3-chloro-4-fluoro-phenylcarbamoyl)-acetyl]-phenyl}-4,6-Bis-((3R,5S)-3,5-diamino-piperidin-1-yl)-[1,3,5]triazine-2-amine], the MIC is under 16 µg/mL.
With `N[C@@H]1C[C@H](N)CN(c2nc(Nc3ccc(C(=O)CC(=O)Nc4cccc(Cl)c4)cc3)nc(N3C[C@H](N)C[C@H](N)C3)n2)C1` [N-{4-[2-(3-chloro-phenylcarbamoyl)-acetyl]-phenyl}-4,6-Bis-((3R,5S)-3,5-diamino-piperidin-1-yl)-[1,3,5]triazine-2-amine], the MIC was under 16 µg/mL.
With `N[C@@H]1C[C@H](N)CN(c2nc(Nc3ccc(C(=O)CC(=O)Nc4cccc(CO)c4)cc3)nc(N3C[C@H](N)C[C@H](N)C3)n2)C1` [N-{4-[2-(3-hydroxymethyl-phenylcarbamoyl)-acetyl]-phenyl}-4,6-Bis-((3R,5S)-3,5-diamino-piperidin-1-yl)-[1,3,5]triazine-2-amine], the minimal inhibitory concentration (MIC) was over 64 µg/mL.
Same read-out and setting: for `N[C@@H]1C[C@H](N)CN(c2nc(Nc3ccc(C(=O)CC(=O)Nc4cccc(OC(F)(F)F)c4)cc3)nc(N3C[C@H](N)C[C@H](N)C3)n2)C1` [N-{4-[2-(3-trifluoromethoxy-phenylcarbamoyl)-acetyl]-phenyl}-4,6-Bis-((3R,5S)-3,5-diamino-piperidin-1-yl)-[1,3,5]triazine-2-amine] the value was under 16 µg/mL.
In the case of `N[C@@H]1C[C@H](N)CN(c2nc(Nc3ccc(C(=O)CC(=O)Nc4cccc(C(F)(F)F)c4)cc3)nc(N3C[C@H](N)C[C@H](N)C3)n2)C1` [N-{4-[2-(3-trifluoromethyl-phenylcarbamoyl)-acetyl]-phenyl}-4,6-Bis-((3R,5S)-3,5-diamino-piperidin-1-yl)-[1,3,5]triazine-2-amine], the minimum inhibitory concentration (MIC) was under 16 µg/mL.
As to `N[C@@H]1C[C@H](N)CN(c2nc(Nc3ccc(C(=O)CC(=O)Nc4cccc(SC(F)(F)F)c4)cc3)nc(N3C[C@H](N)C[C@H](N)C3)n2)C1` [N-{4-[2-(3-trifluoromethylsulfanyl-phenylcarbamoyl)-acetyl]-phenyl}-4,6-Bis-((3R,5S)-3,5-diamino-piperidin-1-yl)-[1,3,5]triazine-2-amine], the minimal inhibitory concentration (MIC) was under 16 µg/mL.
With `NCc1ccc(NC(=O)CC(=O)c2ccc(Nc3nc(N4C[C@H](N)C[C@H](N)C4)nc(N4C[C@H](N)C[C@H](N)C4)n3)cc2)cc1` [N-{4-[2-(4-aminomethyl-phenylcarbamoyl)-acetyl]-phenyl}-4,6-Bis-((3R,5S)-3,5-diamino-piperidin-1-yl)-[1,3,5]triazine-2-amine], the minimal inhibitory concentration (MIC) was over 64 µg/mL.
For `COc1cc(NC(=O)CC(=O)c2ccc(Nc3nc(N4C[C@H](N)C[C@H](N)C4)nc(N4C[C@H](N)C[C@H](N)C4)n3)cc2)c(OC)cc1Cl` [N-{4-[2-(4-chloro-2,5-dimethoxy-phenylcarbamoyl)-acetyl]-phenyl}-4,6-Bis-((3R,5S)-3,5-diamino-piperidin-1-yl)-[1,3,5]triazine-2-amine], the MIC was under 16 µg/mL.
As for `N[C@@H]1C[C@H](N)CN(c2nc(Nc3ccc(C(=O)CC(=O)Nc4ccc(Cl)cc4F)cc3)nc(N3C[C@H](N)C[C@H](N)C3)n2)C1` [N-{4-[2-(4-chloro-2-fluoro-phenylcarbamoyl)-acetyl]-phenyl}-4,6-Bis-((3R,5S)-3,5-diamino-piperidin-1-yl)-[1,3,5]triazine-2-amine], the minimal inhibitory concentration (MIC) is under 16 µg/mL.
